Patent US8802597B2, “Herbicidal pyrimidines” (E I du Pont de Nemours and Company, priority 2003, dated 2014)
Where two headings read alike, the source gives them in different places.

Key:
Assay in all cases: Test C pre/postemergence
Type in all cases: in vivo
[1] = test system: giant foxtail (Setaria faberii); settings: Setaria faberi, pre-emergence; Preemergence, 125 g ai/ha; scale 0 to 100; read-out: Plant response rating, Foxtail, Giant
Procedure, shortened: (§1)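 Injury scored visually 12–14 days after application on 0–100 scale (100 = complete control), relative to controls. Compounds, formulated with surfactant in non-phytotoxic solvent, applied to soil at planting (pre) or to 1- to 4-leaf plants 2–18 cm tall (post) in greenhouse.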

[2] = test system: johnsongrass (Sorghum halepense); settings: Sorghum halepense; for pest or weed control at 31 g/ha: 31 g ai/ha; for pest or weed control at 62 g/ha: 62 g ai/ha; for pest or weed control at 125 g/ha: 125 g ai/ha
Procedure, shortened: as §1

[3] = test system: woolly cupgrass (Eriochloa villosa); settings: Eriochloa villosa; for pest or weed control at 31 g/ha: 31 g ai/ha; for pest or weed control at 62 g/ha: 62 g ai/ha
Procedure, shortened: as §1

[4] = test system: Surinam grass (Brachiaria decumbens); settings: Urochloa decumbens; for pest or weed control at 31 g/ha: 31 g ai/ha; for pest or weed control at 62 g/ha: 62 g ai/ha
Procedure, shortened: as §1

[5] = test system: common (oilseed) sunflower (Helianthus annuus); settings: Helianthus annuus, pre-emergence, Preemergence, scale 0 to 100, 0 no effect, 100 complete control, read-out: Plant response rating, Sunflower
Procedure, shortened: as §1

[6] = test system: pigweed (Amaranthus retroflexus); settings: Amaranthus retroflexus; for pest or weed control at 31 g/ha: 31 g ai/ha; for pest or weed control at 62 g/ha: 62 g ai/ha
Procedure, shortened: as §1

soybean (Glycine max) = settings: Glycine max; for plant injury at 31 g/ha: 31 g ai/ha; for plant injury at 62 g/ha: 62 g ai/ha
Procedure, shortened: as §1

[7] = post-emergence, Postemergence, read-out: Plant response rating (scale of 0 to 100), Johnsongrass
[8] = pre-emergence, Preemergence, scale 0 to 100, 0 no effect, 100 complete control, read-out: Plant response rating, Johnsongrass
[9] = post-emergence, Postemergence, read-out: Plant response rating (scale of 0 to 100), Cupgrass, Woolly
[10] = pre-emergence, Preemergence, scale 0 to 100, 0 no effect, 100 complete control, read-out: Plant response rating, Cupgrass, Woolly
[11] = post-emergence, Postemergence, read-out: Plant response rating (scale of 0 to 100), Surinam Grass
[12] = pre-emergence, Preemergence, scale 0 to 100, 0 no effect, 100 complete control, read-out: Plant response rating, Surinam Grass
[13] = post-emergence, Postemergence, read-out: Plant response rating (scale of 0 to 100), Pigweed
[14] = pre-emergence, Preemergence, scale 0 to 100, 0 no effect, 100 complete control, read-out: Plant response rating, Pigweed
[15] = post-emergence, Postemergence, read-out: Plant response rating (scale of 0 to 100), Soybean
[16] = pre-emergence, Preemergence, scale 0 to 100, 0 no effect, 100 complete control, read-out: Plant response rating, Soybean

Nc1nc(C2CC2)nc(C(=O)OCc2ccccc2)c1Cl [Compound 78, phenylmethyl 6-amino-5-chloro-2-cyclopropyl-4-pyrimidinecarboxylate]
70%: pest or weed control at 31 g/ha ([5]; 31 g ai/ha) | pest or weed control at 62 g/ha [6, 14] | plant injury at 31 g/ha (soybean (Glycine max); [16])
50%: pest or weed control at 125 g/ha ([2]; pre-emergence, Preemergence, scale 0 to 100, read-out: Plant response rating, Johnsongrass) | pest or weed control at 31 g/ha [3, 9] | pest or weed control at 31 g/ha [4, 11] | pest or weed control at 16 g/ha ([5]; 16 g ai/ha) | pest or weed control at 31 g/ha [6, 13]
20%: pest or weed control at 125 g/ha ([2]; post-emergence, Postemergence, scale 0 to 100 (0 no effect, 100 complete control), read-out: Johnsongrass plant response rating) | pest or weed control at 62 g/ha [2, 8]
100%: pest or weed control at 62 g/ha ([5]; 62 g ai/ha) | pest or weed control at 250 g/ha ([6]; post-emergence, Postemergence, 250 g ai/ha, scale 0 to 100, read-out: Plant response rating, Pigweed) | plant injury at 62 g/ha (soybean (Glycine max); [15]) | plant injury at 125 g/ha (soybean (Glycine max); post-emergence, Postemergence, 125 g ai/ha, scale 0 to 100 (0 no effect, 100 complete control), read-out: Soybean plant response rating) | plant injury at 250 g/ha (soybean (Glycine max); post-emergence, Postemergence, 250 g ai/ha, scale 0 to 100, read-out: Plant response rating, Soybean)
55%: pest or weed control at 62 g/ha [3, 9] | pest or weed control at 125 g/ha ([4]; post-emergence, Postemergence, 125 g ai/ha, scale 0 to 100 (0 no effect, 100 complete control), read-out: Surinam Grass plant response rating) | pest or weed control at 62 g/ha [4, 11] | pest or weed control at 16 g/ha ([6]; pre-emergence, Preemergence, 16 g ai/ha, scale 0 to 100, 0 no effect, 100 complete control, read-out: Plant response rating, Pigweed)
0%: pest or weed control at 125 g/ha [1] | pest or weed control at 16 g/ha ([2]; pre-emergence, Preemergence, 16 g ai/ha, scale 0 to 100, 0 no effect, 100 complete control, read-out: Plant response rating, Johnsongrass) | pest or weed control at 16 g/ha ([3]; pre-emergence, Preemergence, 16 g ai/ha, scale 0 to 100, 0 no effect, 100 complete control, read-out: Plant response rating, Cupgrass, Woolly) | pest or weed control at 31 g/ha [3, 10] | pest or weed control at 62 g/ha [3, 10] | pest or weed control at 16 g/ha ([4]; pre-emergence, Preemergence, 16 g ai/ha, scale 0 to 100, 0 no effect, 100 complete control, read-out: Plant response rating, Surinam Grass) | pest or weed control at 31 g/ha [4, 12] | pest or weed control at 62 g/ha [4, 12]
80%: pest or weed control at 62 g/ha [6, 13] | plant injury at 62 g/ha (soybean (Glycine max); [16])
10%: pest or weed control at 31 g/ha [2, 7] | pest or weed control at 62 g/ha [2, 7] | pest or weed control at 31 g/ha [2, 8] | pest or weed control at 125 g/ha ([3]; pre-emergence, Preemergence, 125 g ai/ha, scale 0 to 100, read-out: Plant response rating, Cupgrass, Woolly)
60%: pest or weed control at 31 g/ha [6, 14]
30%: plant injury at 16 g/ha (soybean (Glycine max); pre-emergence, Preemergence, 16 g ai/ha, scale 0 to 100, 0 no effect, 100 complete control, read-out: Plant response rating, Soybean)
40%: pest or weed control at 250 g/ha ([2]; post-emergence, Postemergence, 250 g ai/ha, scale 0 to 100, read-out: Plant response rating, Johnsongrass)
95%: pest or weed control at 125 g/ha ([6]; post-emergence, Postemergence, 125 g ai/ha, scale 0 to 100 (0 no effect, 100 complete control), read-out: Pigweed plant response rating)
90%: pest or weed control at 250 g/ha ([3]; post-emergence, Postemergence, 250 g ai/ha, scale 0 to 100, read-out: Plant response rating, Cupgrass, Woolly) | pest or weed control at 250 g/ha ([4]; post-emergence, Postemergence, 250 g ai/ha, scale 0 to 100, read-out: Plant response rating, Surinam Grass) | plant injury at 31 g/ha (soybean (Glycine max); [15])
